According to US8354441B2, “Oxazoline derivatives” (Hoffmann-La Roche Inc., priority 2009, dated 2013):

Key:
mouse TAAR1 = biological target: T1, mouse TAAR1 (Mus musculus, UniProt Q923Y8); test: TAAR1 radioligand binding with [3H]-rac-2-(1,2,3,4-tetrahydro-1-naphthyl)-2-imidazoline, membranes of stably transfected HEK293 cells; conditions: first value of the cell, read-out: Ki (μM) mouse/rat: mouse
T1 construct: expressed in transfected cells; host or cells: HEK293 (ATCC # CRL-1573), stably transfected with pIRESneo2 expression plasmid
T1 sequence (Q923Y8 whole entry): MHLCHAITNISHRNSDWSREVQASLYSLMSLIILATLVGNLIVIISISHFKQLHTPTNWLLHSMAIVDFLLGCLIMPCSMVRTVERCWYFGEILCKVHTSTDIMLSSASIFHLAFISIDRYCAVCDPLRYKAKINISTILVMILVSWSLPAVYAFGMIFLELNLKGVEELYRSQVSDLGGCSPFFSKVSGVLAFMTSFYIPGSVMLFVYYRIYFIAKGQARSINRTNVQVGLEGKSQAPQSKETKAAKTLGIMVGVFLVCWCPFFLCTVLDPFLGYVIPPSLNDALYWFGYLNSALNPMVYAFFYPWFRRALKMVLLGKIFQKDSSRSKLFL
Procedure, shortened: (§1)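 Competition binding: competitors spanning 10 pM–30 μM displace 60 nM [3H]-rac-2-(1,2,3,4-tetrahydro-1-naphthyl)-2-imidazoline from stably transfected HEK293 membranes (mouse or rat receptor), 30 min, 4 °C, pH 7.0 buffer with Mg2+/Ca2+. Bound label counted after GF/C filtration; 10 μM unlabelled ligand defines non-specific binding.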

rat TAAR1 = biological target: T2, rat TAAR1 (Rattus norvegicus, UniProt Q923Y9); test: as above; conditions: second value of the cell, read-out: Ki (μM) mouse/rat: rat
T2 construct: expressed in transfected cells; host or cells: HEK293 (ATCC # CRL-1573), stably transfected with pIRESneo2 expression plasmid
T2 sequence (Q923Y9 whole entry): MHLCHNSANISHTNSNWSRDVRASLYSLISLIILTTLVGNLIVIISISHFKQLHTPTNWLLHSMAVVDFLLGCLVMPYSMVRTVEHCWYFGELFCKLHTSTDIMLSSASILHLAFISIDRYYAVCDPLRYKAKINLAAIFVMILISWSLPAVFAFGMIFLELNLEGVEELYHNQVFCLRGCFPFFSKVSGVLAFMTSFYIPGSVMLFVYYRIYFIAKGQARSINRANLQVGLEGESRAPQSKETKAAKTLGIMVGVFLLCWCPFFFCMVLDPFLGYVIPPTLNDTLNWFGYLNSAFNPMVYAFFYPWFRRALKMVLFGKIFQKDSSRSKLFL
Procedure, shortened: as §1

| Compound | Ki (mouse TAAR1) [µM] | Ki (rat TAAR1) [µM] |
| --- | --- | --- |
| CC(C)c1ocnc1C(=O)Nc1ccc(CC[C@H]2COC(N)=N2)cc1 [Example 215, (S)-N-(4-(2-(2-Amino-4,5-dihydrooxazol-4-yl)ethyl)phenyl)-5-isopropyloxazole-4-carboxamide] | 0.0012 | 0.0038 |
| NC1=N[C@@H](CCc2ccc(NC(=O)CCc3ccccc3Cl)cc2)CO1 [Example 80, N-{4-[2-((S)-2-Amino-4,5-dihydro-oxazol-4-yl)-ethyl]-phenyl}-3-(2-chloro-phenyl)-propionamide] | 0.0014 | 0.0011 |
| NC1=N[C@@H](CCc2ccc(NC(=O)c3ccc(Cl)cc3F)cc2)CO1 [Example 136, (S)-N-(4-(2-(2-Amino-4,5-dihydrooxazol-4-yl)ethyl)phenyl)-4-chloro-2-fluorobenzamide] | 0.0003 | 0.0006 |
| NC1=N[C@@H](CCc2ccc(NC(=O)c3ncoc3C3CC3)cc2)CO1 [Example 214, (S)-N-(4-(2-(2-Amino-4,5-dihydrooxazol-4-yl)ethyl)phenyl)-5-cyclopropyloxazole-4-carboxamide] | 0.0011 | 0.0028 |
| NC1=N[C@@H](CCc2ccc(NC(=O)c3cncc(F)c3)cc2)CO1 [Example 100, N-{4-[2-((S)-2-Amino-4,5-dihydro-oxazol-4-yl)-ethyl]-phenyl}-5-fluoro-nicotinamide] | 0.004 | 0.0018 |
| NC1=N[C@@H](CCc2ccc(C(=O)Nc3ccc(Cl)cc3)cc2)CO1 [Example 48, 4-[2-((S)-2-Amino-4,5-dihydro-oxazol-4-yl)-ethyl]-N-(4-chloro-phenyl)-benzamide] | 0.001 | 0.0003 |
| NC1=N[C@@H](CCc2ccc(NC(=O)C3CC(F)(F)C3)cc2)CO1 [Example 44, 3,3-Difluoro-cyclobutanecarboxylic acid {4-[2-((S)-2-amino-4,5-dihydro-oxazol-4-yl)-ethyl]-phenyl}-amide] | 0.0035 | 0.0014 |
| COc1ccc(C(=O)Nc2ccc(CC[C@H]3COC(N)=N3)cc2)nc1Cl [Example 168, (S)-N-(4-(2-(2-Amino-4,5-dihydrooxazol-4-yl)ethyl)phenyl)-6-chloro-5-methoxypicolinamide] | 0.0014 | 0.0009 |
| NC1=N[C@@H](CCc2ccc(NC(=O)C3CCC3)cc2)CO1 [Example 45, Cyclobutanecarboxylic acid {4-[2-((S)-2-amino-4,5-dihydro-oxazol-4-yl)-ethyl]-phenyl}-amide] | 0.0026 | 0.0017 |
| N#Cc1ccc(NC(=O)c2ccc(CC[C@H]3COC(N)=N3)cc2)cc1 [Example 142, (S)-4-(2-(2-Amino-4,5-dihydrooxazol-4-yl)ethyl)-N-(4-cyanophenyl)benzamide] | 0.0044 | 0.0011 |
| Cc1nc(C(=O)Nc2ccc(CC[C@H]3COC(N)=N3)cc2)c(C(F)(F)F)o1 [Example 216, (S)-N-(4-(2-(2-Amino-4,5-dihydrooxazol-4-yl)ethyl)phenyl)-2-methyl-5-(trifluoromethyl)oxazole-4-carboxamide] | 0.0027 | 0.0061 |
| CC(C)c1sc(N(C)C)nc1C(=O)Nc1ccc(CC[C@H]2COC(N)=N2)cc1 [Example 189, (S)-N-(4-(2-(2-Amino-4,5-dihydrooxazol-4-yl)ethyl)phenyl)-2-(dimethylamino)-5-isopropylthiazole-4-carboxamide] | 0.0008 | 0.0018 |
| COc1cnc(C(=O)Nc2ccc(CC[C@H]3COC(N)=N3)cc2)cn1 [Example 127, (S)-N-(4-(2-(2-Amino-4,5-dihydrooxazol-4-yl)ethyl)phenyl)-5-methoxypyrazine-2-carboxamide] | 0.0063 | 0.0022 |
| C[C@@H]1OC(N)=N[C@H]1CCc1ccc(NC(=O)c2ccc(Cl)cc2)cc1 [Example 205, N-(4-(2-((4S,5S)-2-Amino-5-methyl-4,5-dihydrooxazol-4-yl)ethyl)phenyl)-4-chlorobenzamide] | 0.0007 | 0.0005 |
| NC1=N[C@@H](CCc2ccc(NC(=O)Nc3ccc(Cl)nc3)cc2)CO1 [Example 38, 1-{4-[2-((S)-2-Amino-4,5-dihydro-oxazol-4-yl)-ethyl]-phenyl}-3-(6-chloro-pyridin-3-yl)-urea] | 0.0017 | 0.0004 |
| CCc1ocnc1C(=O)Nc1ccc(CC[C@H]2COC(N)=N2)cc1 [Example 213, (S)-N-(4-(2-(2-Amino-4,5-dihydrooxazol-4-yl)ethyl)phenyl)-5-ethyloxazole-4-carboxamide] | 0.0015 | 0.0022 |
| NC1=N[C@@H](CCc2ccc(NC(=O)C3CCCCC3)cc2)CO1 [Example 49, Cyclohexanecarboxylic acid {4-[2-((S)-2-amino-4,5-dihydro-oxazol-4-yl)-ethyl]-phenyl}-amide] | 0.0024 | 0.0036 |
| COC(C(=O)Nc1ccc(CC[C@H]2COC(N)=N2)cc1)c1ccc(Cl)cc1 (stereo partly drawn) [Example 78, N-{4-[2-((S)-2-Amino-4,5-dihydro-oxazol-4-yl)-ethyl]-phenyl}-2-(4-chloro-phenyl)-2-methoxy-acetamide] | 0.0048 | 0.0031 |

| Compound | Ki (mouse TAAR1) [µM] | Ki (rat TAAR1) [µM] |
| --- | --- | --- |
| CC(C)(C)c1cc(C(=O)Nc2ccc(CC[C@H]3COC(N)=N3)cc2)ccn1 [Example 197, (S)-N-(4-(2-(2-Amino-4,5-dihydrooxazol-4-yl)ethyl)phenyl)-2-tert-butylisonicotinamide] | 0.003 | 0.0049 |
| CC(C)c1cncc(C(=O)Nc2ccc(CC[C@H]3COC(N)=N3)cc2)n1 [Example 230, (S)-N-(4-(2-(2-Amino-4,5-dihydrooxazol-4-yl)ethyl)phenyl)-6-isopropylpyrazine-2-carboxamide] | 0.0009 | 0.0016 |
| CC(C(=O)Nc1ccc(CC[C@H]2COC(N)=N2)cc1)c1ccc(Cl)cc1 (stereo partly drawn) [Example 58, N-{4-[2-((S)-2-Amino-4,5-dihydro-oxazol-4-yl)-ethyl]-phenyl}-2-(4-chloro-phenyl)-propionamide] | 0.0014 | 0.0007 |
| COc1cc(C(=O)Nc2ccc(CC[C@@H]3N=C(N)O[C@H]3C)cc2)nc(Cl)n1 [Example 219, 2-Chloro-6-methoxy-pyrimidine-4-carboxylic acid {4-[2-((4S,5S)-2-amino-5-methyl-4,5-dihydro-oxazol-4-yl)-ethyl]-phenyl}-amide] | 0.0048 | 0.0037 |
| NC1=N[C@@H](CCc2ccc(NC(=O)c3ccnc(Cl)c3F)cc2)CO1 [Example 174, (S)-N-(4-(2-(2-Amino-4,5-dihydrooxazol-4-yl)ethyl)phenyl)-2-chloro-3-fluoroisonicotinamide] | 0.0035 | 0.0016 |
| NC1=N[C@@H](CCc2ccc(NC(=O)c3ccc(Cl)cn3)cc2)CO1 [Example 33, 5-Chloro-pyridine-2-carboxylic acid {4-[2-((S)-2-amino-4,5-dihydro-oxazol-4-yl)-ethyl]-phenyl}-amide] | 0.0006 | 0.001 |
| COc1ccc(CC(=O)Nc2ccc(CC[C@H]3COC(N)=N3)cc2)cc1 [Example 68, N-{4-[2-((S)-2-Amino-4,5-dihydro-oxazol-4-yl)-ethyl]-phenyl}-2-(4-methoxy-phenyl)-acetamide] | 0.0043 | 0.0019 |
| COc1ccc(C(=O)Nc2ccc(CC[C@H]3COC(N)=N3)cc2)cn1 [Example 97, N-{4-[2-((S)-2-Amino-4,5-dihydro-oxazol-4-yl)-ethyl]-phenyl}-6-methoxy-nicotinamide] | 0.0018 | 0.0015 |
| CC(C(=O)Nc1ccc(CC[C@H]2COC(N)=N2)cc1)c1cccc(C(F)(F)F)c1 (stereo partly drawn) [Example 81, N-{4-[2-((S)-2-Amino-4,5-dihydro-oxazol-4-yl)-ethyl]-phenyl}-2-(3-trifluoromethyl-phenyl)-propionamide] | 0.001 | 0.0022 |
| NC1=NC(c2ccc(NC(=O)Nc3ccc(Cl)cc3)cc2)CO1 (racemic) [Example 1, (RS)-1-[4-(2-Amino-4,5-dihydro-oxazol-4-yl)-phenyl]-3-(4-chloro-phenyl)-urea] | 0.0026 | 0.0005 |
| CC(C)(C(=O)Nc1ccc(CC[C@H]2COC(N)=N2)cc1)c1ccc(Cl)cc1 [Example 72, N-{4-[2-((S)-2-Amino-4,5-dihydro-oxazol-4-yl)-ethyl]-phenyl}-2-(4-chloro-phenyl)-isobutyramide] | 0.0008 | 0.001 |
| NC1=N[C@@H](CCc2ccc(NC(=O)Nc3ccc(C(F)(F)F)cc3)cc2)CO1 [Example 15, 1-{4-[2-((S)-2-Amino-4,5-dihydro-oxazol-4-yl)-ethyl]-phenyl}-3-(4-trifluoromethyl-phenyl)-urea] | 0.0001 | 0.0001 |
| Cc1cnc(C(=O)Nc2ccc(CC[C@H]3COC(N)=N3)cc2)cn1 [Example 129, (S)-N-(4-(2-(2-Amino-4,5-dihydrooxazol-4-yl)ethyl)phenyl)-5-methylpyrazine-2-carboxamide] | 0.0039 | 0.0033 |
| NC1=N[C@@H](CCc2ccc(NC(=O)c3ccc(Br)cn3)cc2)CO1 [Example 92, 5-Bromo-pyridine-2-carboxylic acid {4-[2-((S)-2-amino-4,5-dihydro-oxazol-4-yl)-ethyl]-phenyl}-amide] | 0.0002 | 0.0004 |
| NC1=N[C@@H](CCc2ccc(NC(=O)c3cccc(F)n3)cc2)CO1 [Example 88, 6-Fluoro-pyridine-2-carboxylic acid {4-[2-((S)-2-amino-4,5-dihydro-oxazol-4-yl)-ethyl]-phenyl}-amide] | 0.0097 | 0.0014 |
| NC1=N[C@@H](CCc2ccc(NC(=O)c3cc(F)cnc3F)cc2)CO1 [Example 107, N-{4-[2-((S)-2-Amino-4,5-dihydro-oxazol-4-yl)-ethyl]-phenyl}-2,5-difluoro-nicotinamide] | 0.0014 | 0.0012 |
| CCOc1ccc(C(=O)Nc2ccc(CC[C@H]3COC(N)=N3)cc2)nc1 [Example 153, (S)-N-(4-(2-(2-Amino-4,5-dihydrooxazol-4-yl)ethyl)phenyl)-5-ethoxypicolinamide] | 0.0009 | 0.001 |
